Measurements from PMC9598926, “Design and Synthesis of (Z)-5-(Substituted benzylidene)-3-cyclohexyl-2-thioxothiazolidin-4-one Analogues as Anti-Tyrosinase and Antioxidant Compounds: In Vitro and In Silico Insights” (Antioxidants, 2022).

Legend:
Format in all cases: cell-based, murine
[1] = target: T1, B16F10 cellular tyrosinase (Mus musculus, UniProt P11344); test: Cellular tyrosinase activity assay in α–MSH plus IBMX stimulated B16F10 cells; settings: 5, 10, 20 µM, 72 h
T1 construct: B16F10 murine melanoma cells were used as a cellular tyrosinase source; endogenous in cells; host or cells: B16F10 murine melanoma cells (ATCC)
T1 sequence (P11344 19-533): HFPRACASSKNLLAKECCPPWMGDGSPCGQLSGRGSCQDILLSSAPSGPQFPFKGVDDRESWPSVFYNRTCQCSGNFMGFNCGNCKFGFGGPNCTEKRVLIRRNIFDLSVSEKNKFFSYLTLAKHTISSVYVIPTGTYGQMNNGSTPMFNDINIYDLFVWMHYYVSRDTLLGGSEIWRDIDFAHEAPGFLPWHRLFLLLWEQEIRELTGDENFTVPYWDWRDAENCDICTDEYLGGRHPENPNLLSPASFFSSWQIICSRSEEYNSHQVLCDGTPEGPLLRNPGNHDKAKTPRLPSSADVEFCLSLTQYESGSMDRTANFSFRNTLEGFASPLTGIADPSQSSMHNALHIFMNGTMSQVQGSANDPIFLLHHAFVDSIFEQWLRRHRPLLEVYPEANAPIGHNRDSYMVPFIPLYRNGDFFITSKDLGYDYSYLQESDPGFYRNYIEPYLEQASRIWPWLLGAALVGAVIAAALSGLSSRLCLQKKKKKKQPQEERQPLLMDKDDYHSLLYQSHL
Experimental: Cellular Tyrosinase Activity Assay
Briefly, cultured B16F10 cells were seeded in 6-well culture plate at 1 × 10^4 cells/well and incubated for 12 h under cell culture conditions to allow them to adhere to well bottoms. […] Cells were then washed with PBS twice and exposed to a lysis buffer solution (100 µL) comprised of 5 µL of 20% Triton X-100, 5 µL of 2 mM PMSF, and 90 µL of 50 mM phosphate buffer in pH 6.5. Lysates were kept at −80 °C for 30 min, defrosted, and centrifuged at 12,000 rpm for 30 min at 4 °C. Supernatants (80 µL) were mixed with 20 µL of 2 mg/mL of L-dopa in a 96-well plate, and absorbance of each well was measured at 475 nm every 10 min for 1 h at 37 °C using a microplate reader (VersaMax®, Molecular Devices, Sunnyvale, CA, USA). Experiments were performed independently 3 times.
Cellular tyrosinase activities were determined by measuring optical densities at 475 nm.

MITF = test: Western blot of nuclear MITF in α–MSH/IBMX stimulated B16F10 cells; settings: 5, 10, 20 µM
Experimental: 2.15. Extraction of Cytosolic and Nuclear Proteins from Cells
Western blotting was used to determine tyrosinase and MITF protein levels. Briefly, B16F10 cells were seeded in 60 mm culture dishes in the presence or absence of α–MSH (1 µM) plus IBMX (200 µM) with or without analog 3 (5, 10, and 20 µM for final concentrations) for 24 h, washed twice with ice-cold PBS and centrifuged for 10 min at 12,000× g. Cell pellets were suspended in 10 mM Tris (pH 8.0) containing 0.1% NP-40, 1 mM DTT, 1.5 mM MgCl2, 1 mM PMSF, and protease inhibitors (GenDEPOT, Barker, TX, USA), incubated on ice for 15 min, and centrifuged for 10 min at 12,000× g at 4 °C. Supernatants were used as cytosolic fractions. […] The protein concentrations were determined using a bicinchoninic acid (BCA)™ assay kit (Pierce, Rockford, IL, USA). […]
Lysed protein samples from cells were boiled for 10 min in sample-loading buffer (0.1% bromophenol blue, 25% glycerol, 60 mM Tris-HCl (pH 6.8), 2% SDS, and 0.5% β-mercaptoethanol) at a volume ratio of 1:4. […] Immunoreactive proteins were detected using the enhanced chemiluminescence (ECL) detection reagent in the SuperSignal® West Pico Chemiluminescent Substrate kit (Advansta, San Jose, CA, USA). Western blot bands were visualized using a Davinch-Chemi imager™ (Davinch-K, Seoul, Korea), and quantification was conducted by densitometric analysis using CS analyzer software ver. […]

TRP-1 = test: RT-qPCR of TRP-1 mRNA in α–MSH/IBMX stimulated B16F10 cells
Experimental: 2.17. RNA Extraction and Quantitative Real Time-Polymerase Chain Reaction (RT-qPCR)
B16F10 cells were extracted using GeneAll RiboEx Total RNA extraction reagent (GeneAll Biotechnology, Seoul, Korea) and transferred to tubes, added with chloroform (0.1 mL), shaken vigorously for 30 sec, and centrifuged for 15 min at 12,000× g. Aqueous phases were transferred to fresh tubes, and equal volumes of isopropanol were added. Samples were then incubated at 4 °C for 10 min and centrifuged for 15 min at 12,000× g at 4 °C. Supernatants were discarded, and RNA pellets were washed once with 0.8 mL of 70% ethanol and by vortexing briefly and centrifuged for 5 min at 7500× g at 4 °C. Pellets were dried at 56 °C for 10–15 min and dissolved in 30 µL of diethyl pyrocarbonate (DEPC)-treated water. The levels of RNA were determined by a Nanodrop spectrophotometer (NANO-200, Allsheng, Hangzhou, China). Complementary DNA (cDNA) was synthesized from total RNA (2 µg) using SuPrime Script RT Premix (with random hexamer) cDNA Synthesis Kit (GeNet Bio, Daejeon, Korea). […]
To further investigate the anti-melanogenesis mechanism of analog 3, we examined its effect on the expressions of melanogenesis-associated genes and levels of melanogenesis-associated proteins in B16F10 cells. […] Nuclear levels of MITF protein were measured by Western blotting in α–MSH/IBMX-stimulated B16F10 cells. […]

## O=C1/C(=C/c2ccc(O)cc2O)SC(=S)N1C1CCCCC1 [Analog 3, (Z)-3-Cyclohexyl-5-(2,4-dihydroxybenzylidene)-2-thioxothiazolidin-4-one]
[1]
  effect on α–MSH plus IBMX induced increase in cellular tyrosinase activity: significantly and dose-dependently reduced
MITF
  effect on α–MSH/IBMX-induced increases in MITF levels (nuclear protein): significantly and concentration-dependently suppressed
TRP-1; α–MSH/IBMX stimulated
  effect on expression of TRP-1 (mRNA): significantly and concentration-dependently decreased
TRP-1; α–MSH/IBMX stimulated (2.2-fold), 5 µM
  TRP-1 gene expression: 1.3 fold
